Like-named read-outs stand apart in the source and are kept apart here.
System: HIV-1 (H9/IIB strain)
Test: Multiple Round HIV-1 Infection Assay (Viking Assay) in MT4-GFP cells
Type: cell-based
Conditions: inhibition of reproductive ratio R0
Protocol: Assessing antiviral potency in a Multiple Round HIV-1 Infection Assay (Viking Assay) The antiviral activity of the tenofovir prodrugs of the Examples herein was assessed in an assay that measures the rate of replication of HIV in cell culture, termed the Viking assay (VIral KINetics in Green cells) and performed as follows. HIV-1 replication was monitored using MT4-gag-GFP clone D3 (hereafter designated MT4-GFP), which are MT-4 cells modified to harbor a GFP reporter gene, the expression of which is dependent on the HIV-1 expressed proteins tat and rev. Productive infection of an MT4-GFP cell with HIV-1 results in GFP expression approximately 24 h post-infection. MT4-GFP cells were maintained at 37° C./5% CO2/90% relative humidity in RPMI 1640 supplemented with 10/o fetal bovine serum, 100 U/ml penicillin/streptomycin, and 400 μg/ml G418 to maintain the reporter gene. For infections, MT4-GFP cells were placed in the same medium lacking G418 and infected overnight with HIV-1 (H9/IIB strain) virus at an approximate multiplicity of infection of 0.01 in the same incubation conditions. Cells were then washed and re-suspended in either RPMI 1640 supplemented with 10% or 50% normal human serum (NHS) at 1.6×10^5 cells/mL (10% NHS or 50% NHS, respectively). Compound plates were prepared by dispensing compounds dissolved in DMSO into wells of 384 well poly-D-lysine-coated plates (0.2 μl/well) using an ECHO acoustic dispenser. Each compound was tested in a 10-point serial 3-fold dilution (typical final concentrations: 8.4 μM-0.42 nM). Controls included no inhibitor (DMSO only) and a combination of three antiviral agents (efavirenz, indinavir, an in-house integrase strand transfer inhibitor at final concentrations of 4 μM each). Cells were added (50 μL/well) to compound plates and the infected cells were maintained at 37° C./5% CO2/90% relative humidity.
Infected cells were quantified at two time points, ˜48 h and ˜72 h post-infection, by counting the number of green cells in each well using an Acumen eX3 scanner. The increase in the number of green cells over ˜24 h period gives the reproductive ratio, R0, which is typically 5-15 and has been shown experimentally to be in logarithmic phase (data not shown). Inhibition of R0 is calculated for each well, and IC50s determined by non-linear 4-parameter curve fitting.

[1] = MT4-GFP cells infected with HIV-1, 10% normal human serum, read-out: Viking, IC50 (10% NHS)
[2] = MT4-GFP cells infected with HIV-1, 50% normal human serum, read-out: Viking, IC50 (50% NHS)
[3] = Human immunodeficiency virus 1, MT4-GFP cells infected with HIV-1, 10% normal human serum, read-out: Viking, IC50 (10% NHS)
[4] = Human immunodeficiency virus 1, MT4-GFP cells infected with HIV-1, 50% normal human serum, read-out: Viking, IC50 (50% NHS)

| SMILES | IC50 [1] [µM] | IC50 [2] [µM] | IC50 [3] [µM] | IC50 [4] [µM] |
| --- | --- | --- | --- | --- |
| CCCOC(=O)C(C)(C)N[P@@](=O)(CO[C@H](C)Cn1cnc2c(N)ncnc21)N[C@@H](c1ccc(C#N)cc1)C(F)(F)F.CCCOC(=O)C(C)(C)N[P@](=O)(CO[C@H](C)Cn1cnc2c(N)ncnc21)N[C@@H](c1ccc(C#N)cc1)C(F)(F)F (mixture of isomers) [Example 24A, propyl 2-(((R)-((((R)-1-(6-amino-9H-purin-9-yl)propan-2-yl)oxy)methyl)(((S)-1-(4-cyanophenyl)-2,2,2-trifluoroethyl)amino)phosphoryl)amino)-2-methylpropanoate and propyl 2-(((S)-((((R)-1-(6-amino-9H-purin-9-yl)propan-2-yl)oxy)methyl)(((S)-1-(4-cyanophenyl)-2,2,2-trifluoroethyl)amino)phosphoryl)amino)-2-methylpropanoate] | 0.0063 | 0.03 |  |  |
| CCCOC(=O)C(C)(C)N[P@@](=O)(CO[C@H](C)Cn1cnc2c(N)ncnc21)N[C@@H](c1ccc(C#N)cc1)C(F)(F)F.CCCOC(=O)C(C)(C)N[P@](=O)(CO[C@H](C)Cn1cnc2c(N)ncnc21)N[C@@H](c1ccc(C#N)cc1)C(F)(F)F (mixture of isomers) [Example 24B, propyl 2-(((R)-((((R)-1-(6-amino-9H-purin-9-yl)propan-2-yl)oxy)methyl)(((S)-1-(4-cyanophenyl)-2,2,2-trifluoroethyl)amino)phosphoryl)amino)-2-methylpropanoate and propyl 2-(((S)-((((R)-1-(6-amino-9H-purin-9-yl)propan-2-yl)oxy)methyl)(((S)-1-(4-cyanophenyl)-2,2,2-trifluoroethyl)amino)phosphoryl)amino)-2-methylpropanoate] | 0.022 | 0.17 |  |  |
| CCCOC(=O)C(C)(C)NP(=O)(CO[C@H](C)Cn1cnc2c(N)ncnc21)N(C)[C@H](C)c1ccc(Cl)cc1 (single isomer, unassigned) [Example 2B] |  |  | 0.002 | 0.0096 |
| CCCOC(=O)C(C)(C)N[P@@](=O)(CO[C@H](C)Cn1cnc2c(N)ncnc21)N[C@H](c1ccc(OC(F)(F)F)cc1)C(F)(F)F (single isomer, unassigned) [Example 27B] | 0.052 | 0.25 |  |  |
| CCCOC(=O)C(C)(C)NP(=O)(CO[C@H](C)Cn1cnc2c(N)ncnc21)N[C@H](C)c1ccc(Cl)cc1 (stereo partly drawn) [Example 1A, propyl 2-(((R)-((((R)-1-(6-amino-9H-purin-9-yl)propan-2-yl)oxy)methyl(((R)-1-(4-chlorophenyl)ethyl)amino)phosphoryl)amino)-2-methylpropanoate and propyl 2-(((S)-((((R)-1-(6-amino-9H-purin-9-yl)propan-2-yl)oxy)methyl)(((R)-1-(4-chlorophenyl)ethyl)amino)phosphoryl)amino)-2-methylpropanoate] |  |  | 0.12 | 0.71 |
| CCCOC(=O)C(C)(C)NP(=O)(CO[C@H](C)Cn1cnc2c(N)ncnc21)N(C)[C@H](C)c1ccc(Cl)cc1 (stereo partly drawn) [Example 2A, propyl 2-(((R)-((((R)-1-(6-amino-9H-purin-9-yl)propan-2-yl)oxy)methyl(((R)-1-(4-chlorophenyl)ethyl)(methyl)amino)phosphonyl)amino)-2-methylpropanoate and propyl 2-(((S)-((((R)-1-(6-amino-9H-purin-9-yl)propan-2-yl)oxy)methyl)(((R)-1-(4-chlorophenyl)ethyl)(methyl)amino)phosphoryl)amino)-2-methylpropanoate] |  |  | 0.043 | 0.13 |
| CCCOC(=O)C(C)(C)NP(=O)(CO[C@H](C)Cn1cnc2c(N)ncnc21)N[C@H](C)c1ccc(OC(F)(F)F)cc1 (stereo partly drawn) [Example 3A] |  |  | 0.08 | 0.78 |
| CCCOC(=O)C(C)(C)NP(=O)(CO[C@H](C)Cn1cnc2c(N)ncnc21)N[C@H](c1ccc(OC(F)(F)F)cc1)C(F)(F)F (stereo partly drawn) [Example 4B] | 0.016 | 0.16 |  |  |
| CCCOC(=O)C(C)(C)N[P@@](=O)(CO[C@H](C)Cn1cnc2c(N)ncnc21)NCc1ccc(OC(F)(F)F)cc1 [Example 7B, propyl 2-(((R)-((((R)-1-(6-amino-9H-purin-9-yl)propan-2-yl)oxy)methyl)((4-(trifluoromethoxy)benzyl)amino)phos-phoryl)amino)-2-methylpropanoate and propyl 2-(((S)-((((R)-1-(6-amino-9H-purin-9-yl)propan-2-yl)oxy)methyl)((4-(trifluoromethoxy)benzyl)amino)phos-phoryl)amino)-2-methylpropanoate] | 0.045 | 0.3 |  |  |
| CCCOC(=O)C(C)(C)N[P@@](=O)(CO[C@H](C)Cn1cnc2c(N)ncnc21)N[C@H](C)c1cccc(F)c1 [Example 9A, propyl 2-(((R)-((((R)-1-(6-amino-9H-purin-9-yl)propan-2-yl)oxy)methyl)(((R)-1-(3-fluorophenyl)ethyl)amino)phosphoryl)ami-no)-2-methylpropanoate and propyl 2-(((S)-((((R)-1-(6-amino-9H-purin-9-yl)propan-2-yl)oxy)methyl)(((R)-1-(3-fluorophenyl)ethyl)amino)phosphoryl)ami-no)-2-methylpropanoate] | 0.089 | 0.94 |  |  |
| CCCOC(=O)C(C)(C)N[P@@](=O)(CO[C@H](C)Cn1cnc2c(N)ncnc21)N[C@@H](C)c1cccc(F)c1 [Example 10A, propyl 2-(((R)-((((R)-1-(6-amino-9H-purin-9-yl)propan-2-yl)oxy)methyl)(((S)-1-(3-fluorophenyl)ethyl)amino)phosphoryl)ami-no)-2-methylpropanoate and propyl 2-(((S)-((((R)-1-(6-amino-9H-purin-9-yl)propan-2-yl)oxy)methyl)(((S)-1-(3-fluorophenyl)ethyl)amino)phosphoryl)ami-no)-2-methylpropanoate] | 0.068 | 0.56 |  |  |
| CCCOC(=O)C(C)(C)N[P@@](=O)(CO[C@H](C)Cn1cnc2c(N)ncnc21)N[C@@H](C)c1cccc(F)c1 [Example 10B, propyl 2-(((R)-((((R)-1-(6-amino-9H-purin-9-yl)propan-2-yl)oxy)methyl)(((S)-1-(3-fluorophenyl)ethyl)amino)phosphoryl)ami-no)-2-methylpropanoate and propyl 2-(((S)-((((R)-1-(6-amino-9H-purin-9-yl)propan-2-yl)oxy)methyl)(((S)-1-(3-fluorophenyl)ethyl)amino)phosphoryl)ami-no)-2-methylpropanoate] | 0.099 | 0.49 |  |  |
| CCCOC(=O)C(C)(C)NP(=O)(CO[C@H](C)Cn1cnc2c(N)ncnc21)N[C@@H](C)c1ccc(C(F)(F)F)cc1 (stereo partly drawn) [Example 11A, propyl 2-(((R)-((((R)-1-(6-amino-9H-purin-9-yl)propan-2-yl)oxy)methyl)(((S)-1-(4-(trifluoromethyl)phenyl)ethyl)amino)phos-phoryl)amino)-2-methylpropanoate and propyl 2-(((S)-((((R)-1-(6-amino-9H-purin-9-yl)propan-2-yl)oxy)methyl)(((S)-1-(4-(trifluoromethyl)phenyl)ethyl)amino)phosphoryl)amino)-2-methylpropanoate] | 0.0046 | 0.042 |  |  |
| CCCOC(=O)C(C)(C)NP(=O)(CO[C@H](C)Cn1cnc2c(N)ncnc21)N[C@@H](C)c1ccc(C(F)(F)F)cc1 (stereo partly drawn) [Example 11B, propyl 2-(((R)-((((R)-1-(6-amino-9H-purin-9-yl)propan-2-yl)oxy)methyl)(((S)-1-(4-(trifluoromethyl)phenyl)ethyl)amino)phos-phoryl)amino)-2-methylpropanoate and propyl 2-(((S)-((((R)-1-(6-amino-9H-purin-9-yl)propan-2-yl)oxy)methyl)(((S)-1-(4-(trifluoromethyl)phenyl)ethyl)amino)phosphoryl)amino)-2-methylpropanoate] | 0.016 | 0.084 |  |  |
| CCCOC(=O)C(C)(C)NP(=O)(CO[C@H](C)Cn1cnc2c(N)ncnc21)N[C@H](C)c1ccc(C(F)(F)F)cc1 (stereo partly drawn) [Example 12A, propyl 2-(((R)-((((R)-1-(6-amino-9H-purin-9-yl)propan-2-yl)oxy)methyl)(((R)-1-(4-(trifluoromethyl)phenyl)ethyl)amino)phos-phoryl)amino)-2-methylpropanoate and propyl 2-(((S)-((((R)-1-(6-amino-9H-purin-9-yl)propan-2-yl)oxy)methyl)(((R)-1-(4-(trifluoromethyl)phenyl)ethyl)amino)phos-phoryl)amino)-2-methylpropanoate] | 0.096 | 0.68 |  |  |
